Publication PMC7179297, “Preclinical Antimalarial Combination Study of M5717, a Plasmodium falciparum Elongation Factor 2 Inhibitor, and Pyronaridine, a Hemozoin Formation Inhibitor” (Antimicrobial Agents and Chemotherapy, 2020)
Like-named read-outs stand apart in the source and are kept apart here.

Tests used:
[1] = Pharmacokinetic analysis in blood of mice from the efficacy study; type: in vivo; settings: for AUC(0-inf) / half-life: NOD-scid IL-2Rγnull, mouse, whole blood, po; for AUC(0-inf): mean ± SD; for half-life / pharmacokinetics in combination versus single-agent treatment / half-life (t1/2): mice; for half-life / half-life (t1/2): administered alone, single oral dose; for half-life: read-out: half-life (t1/2) (converted); for pharmacokinetics in combination versus single-agent treatment: Cmax, AUC0-inf and t1/2, entries 8 to 11
Method: The test compounds’ concentrations in blood were assessed in order to determine pharmacokinetic parameters in mice from the efficacy study. Peripheral blood samples (20 μl) were sampled at different time points (1, 2, 4, 6, 24, 48, 72, 96, 168, and 216 h post treatment), mixed with 20 μl of H2O Milli Q and immediately frozen on dry ice. Samples were stored at –80°C until analysis. Blood from control mice was used for bioanalysis calibration and QC purposes. For liquid chromatography with tandem mass spectrometry (LC-MS/MS) analysis, the frozen samples were thawed and treated with two volumes equivalent of acetonitrile containing the internal standard. After centrifugation, one volume equivalent of supernatant was diluted with one volume equivalent of water containing heptafluorobutyric acid (HFBA). The extracts were analyzed by LC-MS/MS (quantification by HESI ionization in positive ion mode) performed at Swiss BioQuant AG (Switzerland). A noncompartmental analysis was performed to determine pharmacokinetic parameters using the Phoenix WinNonlin program (version 6.3).
56 Pharmacokinetic parameters
57 The pharmacokinetic analysis was performed non-compartmentally using the extravascular model. For the analysis,
58 concentrations below the LLOQ were set to 0. The following pharmacokinetic parameters of the analytes were
59 derived from the concentration-time profiles.
C0 The pre-dose concentration assumed to be 0 on the day of oral dosing.
tmax Time where the concentration in matrix is the highest.
Cmax/dose Cmax normalized to the dose of 1 mg/kg.
AUC0-t Area under the matrix concentration -time curve from 0 h to time t calculated using
the linear trapezoidal rule , using C0 as defined above.
AUC0-∞ Area under the matrix concentration -time curve from 0 h to infinity calculated using
AUC0-∞/dose AUC0-∞ normalized to a dose of 1 mg/kg.
61 Software for calculations: Phoenix WinNonlin program (version 6.3).
62 All concentration values and pharmacokinetic parameters were rounded to 3 significant digits.
63 The numbers listed for %bias and %CV were rounded to 1 decimal place.

[2] = system: P. falciparum NF54 strain; assay: [3H]hypoxanthine incorporation assay, individual drugs; type: cell-based; settings: Plasmodium falciparum, 72 h
Method: IC50 and drug interaction studies were performed as previously described ([27], [28]). […] Cultures were harvested onto glass fiber filters, washed, and the radioactivity was counted using a MicroBetaplate liquid scintillation counter and recorded as counts per minute (cpm) per well. Results are expressed as a percentage of the untreated controls (see the supplemental material for more details). page 2: 25 In vitro isobolograms 26 Compounds were tested against intraerythrocytic forms of P. falciparum derived from asynchronous stock cultures 27 of lab strain NF54 (Schiphol airport strain of unknown origin), as previously described.i,ii The culture medium was […] 29 mM HEPES, 25 mM NaHCO3 (pH 7.3), 0.36 mM hypoxanthine and 100 μg/mL neomycin. Human type A+ 30 erythrocytes served as host cells. […] 31 in humidified modular chambers. Testing of the individual drugs was carried out in 96-well microtiter plates. The 32 compounds were dissolved in DMSO (10 mg/mL), prediluted in hypoxanthine-free culture medium and titrated in […] After addition of an equal volume of parasite culture with a parasitemia of […] Parasite growth was measured by the incorporation of radiolabelled [3H]hypoxanthine (0.25 µCi in […] 37 assay duration) prior to the termination of the test. Cultures were harvested onto glass-fiber filters and washed with 38 distilled water. The radioactivity was counted using a MicroBetaplate liquid scintillation counter (Wallac, Zürich, 39 Switzerland) and the results recorded as counts per minute (cpm) per well at each drug concentration and expressed 40 as percentage of the untreated controls. Fifty percent inhibitory concentrations (IC50) were determined by linear 41 interpolation.v 42 43 For data interpretation, the IC50s of the drugs in combination were expressed as fractions of the IC50s of the drugs 44 alone. These fractions were called “Fractional Inhibitory Concentrations” (FIC) for drug A and for drug B, 45 respectively. 46 FIC Drug A = IC50 A (B) IC50 A […] 49 50 Formulation 51 Pyronaridine (tetraphosphate salt) and […] (succinate salt) were solubilized in a vehicle consisting of 70% […] 54 55 2

SMILES | AUC(0-inf) ([1]; 3 mg/kg, M5717 3 mg/kg single oral dose (entry 1), read-out: M5717 exposure AUC0-inf) [ng·h/mL] | AUC(0-inf) ([1]; 6 mg/kg, M5717 6 mg/kg single oral dose (entry 2), read-out: M5717 exposure AUC0-inf) [ng·h/mL] | AUC(0-inf) ([1]; 12 mg/kg, M5717 12 mg/kg + pyronaridine 12 mg/kg single oral dose (entry 10), read-out: M5717 exposure AUC0-inf) [ng·h/mL] | AUC(0-inf) ([1]; 12 mg/kg, M5717 12 mg/kg single oral dose (entry 3), read-out: M5717 exposure AUC0-inf) [ng·h/mL] | AUC(0-inf) ([1]; 30 mg/kg, M5717 30 mg/kg single oral dose (entry 4), read-out: M5717 exposure AUC0-inf) [ng·h/mL] | AUC(0-inf) ([1]; M5717 3 mg/kg + pyronaridine 6 mg/kg single oral dose (entry 8), read-out: M5717 exposure AUC0-inf) [ng·h/mL] | AUC(0-inf) ([1]; M5717 6 mg/kg + pyronaridine 36 mg/kg single oral dose (entry 11), read-out: M5717 exposure AUC0-inf) [ng·h/mL] | AUC(0-inf) ([1]; M5717 12 mg/kg + pyronaridine 6 mg/kg single oral dose (entry 9), read-out: M5717 exposure AUC0-inf) [ng·h/mL] | half-life [1] [h] | pharmacokinetics in combination versus single-agent treatment [1] | half-life (t1/2) [1] [h] | EC50 [2] [nM] | AUC(0-inf) ([1]; 6 mg/kg, pyronaridine 6 mg/kg single oral dose (entry 5), read-out: Pyronaridine exposure AUC0-inf) [ng·h/mL] | AUC(0-inf) ([1]; 12 mg/kg, M5717 12 mg/kg + pyronaridine 12 mg/kg single oral dose (entry 10), read-out: Pyronaridine exposure AUC0-inf) [ng·h/mL] | AUC(0-inf) ([1]; 12 mg/kg, pyronaridine 12 mg/kg single oral dose (entry 6), read-out: Pyronaridine exposure AUC0-inf) [ng·h/mL] | AUC(0-inf) ([1]; 36 mg/kg, pyronaridine 36 mg/kg single oral dose (entry 7), read-out: Pyronaridine exposure AUC0-inf) [ng·h/mL] | AUC(0-inf) ([1]; M5717 3 mg/kg + pyronaridine 6 mg/kg single oral dose (entry 8), read-out: Pyronaridine exposure AUC0-inf) [ng·h/mL] | AUC(0-inf) ([1]; M5717 6 mg/kg + pyronaridine 36 mg/kg single oral dose (entry 11), read-out: Pyronaridine exposure AUC0-inf) [ng·h/mL] | AUC(0-inf) ([1]; M5717 12 mg/kg + pyronaridine 6 mg/kg single oral dose (entry 9), read-out: Pyronaridine exposure AUC0-inf) [ng·h/mL]
O=C(NCCN1CCCC1)c1cc(-c2ccc(CN3CCOCC3)cc2)nc2ccc(F)cc12 [M5717] | 1570 | 3390 | 6650 | 6160 | 16900 | 1360 | 2980 | 6400 | ~37 | unchanged | 37 | 0.3 | – | – | – | – | – | – | –
COc1ccc2nc3cc(Cl)ccc3c(Nc3cc(CN4CCCC4)c(O)c(CN4CCCC4)c3)c2n1 [pyronaridine] | – | – | – | – | – | – | – | – | ~74 | No change | 74 | 3.5 | 6560 | 12100 | 14500 | 55600 | 8500 | 58200 | 8490
